Results on two molecules are retold here after patent US6683103B2, “Sulfonamides for treatment of endothelin-mediated disorders” (Texas Biotechnology Corporation, priority 1997, dated 2004).

Experiment [1] addresses T1, human ETB receptor (Homo sapiens, UniProt P24530).
T1 construct: expressed in transfected cells; host or cells: COS7 cells
T1 sequence (P24530 27-442): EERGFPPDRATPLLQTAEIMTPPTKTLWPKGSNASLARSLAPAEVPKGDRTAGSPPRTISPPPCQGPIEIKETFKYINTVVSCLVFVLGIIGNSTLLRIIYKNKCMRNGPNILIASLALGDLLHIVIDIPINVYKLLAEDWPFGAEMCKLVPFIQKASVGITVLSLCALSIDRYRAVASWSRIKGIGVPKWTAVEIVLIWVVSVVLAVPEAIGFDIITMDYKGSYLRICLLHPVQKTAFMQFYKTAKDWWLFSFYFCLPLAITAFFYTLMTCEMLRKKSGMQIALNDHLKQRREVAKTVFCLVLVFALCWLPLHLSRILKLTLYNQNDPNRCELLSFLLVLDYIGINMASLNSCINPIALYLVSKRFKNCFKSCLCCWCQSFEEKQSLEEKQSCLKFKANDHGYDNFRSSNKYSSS
Briefly: Binding Test #2: inhibition of 125I-ET-1 binding to ETB receptors (transfected COS7 cell membranes). To be noted: Table 1; † incubation at 24° C.; read-out: ETB. In a few lines: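 Competition with 125I-ET-1 for binding to membranes from COS7 cells transfected with human ETB receptor, used at 1 μg/50 μl binding buffer. Membranes prepared in HEPES pH 7.4 with aprotinin, including a DNase/MnCl2 step at 37 °C for 30 min.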

The subject of experiment [2] is ET-1-induced pressor response. Briefly: ET-1-induced pressor responses in conscious, autonomically blocked rats. It counts as in vivo, rat. To be noted: in 30 min at dosages as low as 30 mg/kg. How it is done: Animals were placed in a restrainer and allowed to regain consciousness. Thirty minutes later autonomic blockade was administered (atropine methyl nitrate, 3 mg/kg, IV, followed by propranalol, 2 mg/kg, IV). An hour later animals received a bolus injection of vehicle (0.5 ml) followed thirty minutes later by intravenous bolus administration of ET-1 (Control, 1 μg/kg). Following recovery from this challenge, test-compounds were administered by intravenous bolus administration (0.5 ml) and then re-challenged with ET-1 thirty minutes later. Results are expressed as the percent inhibition of the ET-1-induced pressor response after administration of the test compound compared to the pressor response induced by the control ET-1 challenge. In some cases a third ET-1 challenge was administered ninety minutes after administration of the test compound.

Turning to `Cc1cc2c(cc1CC(=O)c1sccc1S(=O)(=O)Nc1onc(C)c1Cl)OCO2` [N-(4-chloro-3-methyl-5-isoxazolyl)-2-[2-methyl-4,5-(methylenedioxy)phenylacetyl]thiophene-3-sulfonamide], the IC50 in experiment [1] is 9 µM. Besides, the reduction of pressure entry in experiment [2] was “about 30%”.
In the same order, the values of `Cc1noc(NS(=O)(=O)c2ccsc2C(=O)Cc2ccc3c(c2)OCO3)c1Cl` [N-(4-chloro-3-methyl-5-isoxazolyl)-2-[(3,4-(methylenedioxy)phenylacetyl]thiophene-3-sulfonamide] are 6.5 µM and “about 30%”.
